# Results reported in patent US9358262B2, “Use of antioxidant-enriched fermented blueberry extracts in the treatment of diabetes” (priority 2003, dated 2016).
# Marks after values point to notes of the source that are not given here.
# System: KKA^y mice
# Assay: Chronic 4-week treatment of diabetic KKA^y mice in drinking water
# Format: in vivo, mouse
# Method: Mice were fasted for 16 h. A glucose solution was administered by intragastric gavage at a dose of 1 g/kg body weight. The blood glucose concentration was measured at 0, 30, 60, 90, 120 min after glucose administration in the blood collected from the tip of the tail vein, using an Accu-Chek glucose meter (Roche, Montreal, QC, Canada).
# At the end of the experiment, blood samples were collected from renal artery during exsanguinations carried out under anesthesia using heparinized tools. The samples were centrifuged at 3000 g for 10 min at 4° C. The plasma samples were used for the analyses of biochemical parameters. Plasma adiponectin, insulin and leptin were measured using radioimmuno assay (RIA) kits (Millipore, Montreal, QC, Canada).
# In preliminary experiments, three different doses of BJ, namely 20, 40, 80 ml/kg/day, were incorporated in the drinking water and provided to mice for one week. […] Therefore, this dose was used for the chronic treatment studies described here.
# Forty-two 7 week-old KKA^y mice were randomly divided into 6 groups (n=7) which received either water, normal blueberry juice (NJ) (80 ml/kg/day), biotransformed blueberry juice (BJ) (80 ml/kg/day; prepared as described in Example 8), or Metformin (0.85 g/kg/day) (Meglasson M D et al., supra) in drinking water. […] The sixth and final group received SW but had unrestricted access to solid food. Baseline measurements of fed blood glucose levels, body weight, food intake and water consumption were taken daily at 11.00 a.m. At the onset of experiments and after 4 weeks, an oral glucose tolerance test (OGTT) was performed, as described in Example 8.
# [1] = NJ, BJ 80 ml/kg/day, MET 0.85 g/kg/day, 4 weeks
structure (smiles),measurement,setting,value
"CN(C)C(=N)N=C(N)N [MET, Metformin]",Rise of circulating adiponectin above values of control animals,4 weeks,neither NJ nor Metformin treatments could modify the low level of adiponectin
same,Reduction of circulating insulin levels vs controls,"4 weeks, BJ effect not statistically significant",normalized
same,Drop of OGTT AUC between the onset and the end of treatment,"4 weeks, glucose 1 g/kg by gavage",38%
same,Adiponectin (plasma),[1],5.9 ± 0.6^a μg/ml
same,Insulin (plasma),[1],1.7 ± 0.5^b ng/ml
same,Leptin (plasma),[1],27.6 ± 2.9^a ng/ml
same,Reduction of food intake as compared to controls,[1],30%
same,Time to reach the maximum (BJ) or normalising (Metformin) effect on glycemia,chronic treatment in drinking water,≤ 4 days
same,Glycemia level (fed state),during 4-week treatment,10 mM
same,Body weight loss as compared to controls,end of the 4-week treatment period,4%
